The values below come from article PMC4732562 (2015).

The subject of the assay is 3',3'-cGAMP riboswitch (Gs1761 aptamer, A2G/U72C/C73U) (RNA, riboswitch) GGUACACGACAAUACUAAACCAUCCGCGAGGAUGGGGCGGAAAGCCUAAGGGUCUCCCUGAGACAGCCGGGCUGCCGAAAUAUC
The assay can be described thus: ITC. The settings on record: 35 °C; one set of sites; buffer in supplement.

By Kd is commonly meant the constant that tells how readily two partners part at equilibrium. A low value points to tighter binding. For `Nc1nc2c(ncn2[C@@H]2O[C@@H]3COP(=O)(O)O[C@H]4[C@@H](O)[C@H](n5cnc6c(=O)[nH]c(N)nc65)O[C@@H]4COP(=O)(O)O[C@H]3[C@H]2O)c(=O)[nH]1`, the Kd is 930 nM. The figure for `Nc1nc2c(ncn2[C@@H]2O[C@@H]3COP(=O)(O)O[C@H]4[C@@H](O)[C@H](n5cnc6c(N)ncnc65)O[C@@H]4COP(=O)(O)O[C@H]3[C@H]2O)c(=O)[nH]1` is 70 nM.
